Assay type in all cases: cell-based, human
In experiment [1] the test system is HaCat normal keratinocytes. Briefly: MTT cell viability assay, HaCat. Conditions: Homo sapiens, HaCaT, 24 h, combinations 1:1, mean ± SD, read-out: HaCat IC50. From the text: (§1) The human cell lines TK10 (human kidney adenocarcinoma), UACC62 (human melanoma) and MCF7 (human breast adenocarcinoma) were obtained from the National Cancer Institute (NCI) as part of a panel widely studied for drug screening and molecular target identification. […] The nontumorigenic human immortalized keratinocyte (HaCaT) cells were a kind donation by the School of Anatomical Sciences, Faculty of Health Sciences, University of the Witwatersrand, South Africa. […] All reagents were of analytical grade and were obtained from Merck (Darmstadt, Germany) unless stated otherwise. Cells were cultured in Dulbecco’s modified essential medium (DMEM; Hyclone, GE healthcare, South Logan, UT, USA) containing 10% fetal bovine serum (FBS), 1% penicillin/streptomycin, 1% 200 mM L-Glutamine and 1% nonessential amino acids (Lonza, Basel, Switzerland) at 37°C in a humidified atmosphere of 5% CO2. Stock solutions of the compounds were prepared in dimethyl sulfoxide (DMSO). All subsequent dilutions were prepared in serum-free DMEM and vehicle controls were included in all experiments
(§2) The growth inhibitory effects of the compounds were tested in the 3-cell line panel consisting of TK10 (renal), UACC62 (melanoma) and MCF7 (breast) cancer cells by Sulforhodamine B (SRB) assay. […] Compounds prepared in DMSO were tested at 0.01–100 µM serial dilutions to establish initial inhibitory concentrations. […] After 24 h exposure to compounds, growth medium was removed, cells rinsed twice with 1 ml of phosphate buffered saline (PBS) and 100 µl fresh serum-free medium containing 5 mg/ml MTT solution was added MTT solution was prepared fresh for each analysis). Cells were then incubated for 4 h at 37°C, after which the MTT was removed and substituted with 100 µl dimethyl sulfoxide (DMSO) to dissolve the formazan crystals for an h at 37°C. After incubation, cell viability was determined using a microplate reader (BioTek®, Vermont, USA) at an excitation wavelength of 560 nm and emission wavelength of 630 nm with DMSO measured as a blank. Cell viability was expressed as a percentage relative to the untreated control, which is assumed to be 100% viable. For a positive control, cells were treated with 0.01% Triton-X 100 (Sigma-Aldrich, St Louis, MO, USA) for a period of 4 h. Using the MTT assay data, IC50 values were calculated using GraphPad Prism 8. Data were normalized to the positive (alleged to be 0% viable) and negative controls (presumed to be 100% viable), followed by the log-transformation of the concentration values. […] A crude therapeutic index (fold decrease in IC50 value) was calculated as the IC50 of the noncancerous cell-line/IC50 of the cancerous cell line. […] Drug interactions were evaluated for synergism, additivity or antagonism using multiple drug effect analysis, based on the median-principle. Cells were treated with the drug combinations for 24 h and analyzed. The CompuSyn (ComboSyn, Inc. NJ, USA) software package was used to generate the median-effect plots and combination index plots. […] All experiments were performed at least in triplicate and repeated independently.
(§3) Next, the quantitative colorimetric MTT assay was used to determine in vitro cell viability with A375 (melanoma) and HaCat (nonmalignant keratinocyte) cells. […] The IC50 was used to determine a crude therapeutic index (fold increase or decline in IC50).
On the technique in general: Formazan colour is commonly taken as a measure of viable cells.

The subject of experiment [2] is A375 melanoma cells. Briefly: MTT cell viability assay, A375. The settings on record: for IC50: Homo sapiens, A-375, MTT, 24 h, combinations 1:1, mean ± SD; for Therapeutic index (TI): IC50 of HaCat cells/IC50 of A375 cells.
Description: as §1, §2, §3

In experiment [3] the test system is A375 melanoma cells. As to the kind of experiment: Intracellular ROS, DCFH-DA assay, A375. The settings on record: A375, 12 h treatment; result in words. The protocol: HaCat and A375 cells were seeded at 25,000 cells/well in 96-well plates (Black plate, Clear bottom, Corning, Costar®, NY, USA) and incubated until cells were ~90% confluent. Serum-free DMEM without phenol red (Thermo Fisher Scientific, Gibco, Carlsbad, CA, USA) was used for all experiments. Cells were exposed to compounds or H2O2 (500 µM) for 12 h. Cell staining with ROS fluorescent indicator 2’,7’-dichlorodihydrofluorescein diacetate (DCFH-DA) was performed 1.5 h before the end of the 12-h exposure time. A kinetic analysis was then performed at 37°C using a microplate reader (SpectraMax® ParadigmTM Molecular Devices, Sunnyvale, CA, USA) by measuring the DCF fluorescence (excitation 485 nm and emission 535 nm) every 10 min for 1 h. […] The Bradford assay (Coomassie blue colorimetric method) was then performed in order to determine the relative amount of protein per well, as an indication of cell number per well, and all fluorescence measurements were normalized relative to the cell number. The background fluorescence produced by blank medium controls and unstained but treated cell controls were subtracted from DCFH-DA stained cells. The DCF fluorescence measured at the beginning of the analysis (time 0) was subtracted from the DCF fluorescence at the indicated times for the kinetic analysis (results not shown). […]
The levels of intracellular ROS were determined using the DCFH-DA assay. […]

The results in this text go back to publication PMC7552967, “Anti-Melanoma Activities of Artemisone and Prenylated Amino-Artemisinins in Combination With Known Anticancer Drugs” (Frontiers in Pharmacology, 2020).

For orientation: IC50 means the concentration needed to halve the response being measured.

On to `C[C@@H]1CC[C@H]2[C@@H](C)C(=O)O[C@@H]3O[C@@]4(C)CC[C@@H]1[C@]32OO4` [Artemisinin 2, artemisinin], for which the CC50 in experiment [1] came out at 381 ± 5.36 µM. In addition, in experiment [2], the 50% inhibitory concentration (IC50) was 150 ± 3.61 µM and the “Therapeutic index (TI)” value was 2.5.

As to `C[C@H]1[C@H](N2CCS(=O)(=O)CC2)O[C@@H]2O[C@@]3(C)CC[C@H]4[C@H](C)CC[C@@H]1[C@@]24OO3` [Artemisone 4, artemisone], the CC50 in experiment [1] amounted to 268.8 ± 1.97 µM. Besides, in experiment [2], the IC50 was 95.7 ± 2.31 µM and the “Therapeutic index (TI)” value worked out at 2.8.

Turning to `CC(C)=CCC/C(C)=C/CC/C(C)=C/CN1CCN([C@@H]2O[C@@H]3O[C@@]4(C)CC[C@H]5[C@H](C)CC[C@@H]([C@H]2C)[C@@]35OO4)CC1` [Farnesylpiperazine-DHA 7, farnesylpiperazine-DHA], the CC50 in experiment [1] worked out at 70.6 ± 1.07 µM. For the same compound, in experiment [3], the “Intracellular ROS (DCF fluorescence fold change vs untreated control)” value is listed as “not significantly higher than the untreated control”. In experiment [2], the half-maximal inhibitory concentration (IC50) was 32.6 ± 1.08 µM and the “Therapeutic index (TI)” value was 2.1.

On to `CC(C)=CCC/C(C)=C/CN1CCN([C@@H]2O[C@@H]3O[C@@]4(C)CC[C@H]5[C@H](C)CC[C@@H]([C@H]2C)[C@@]35OO4)CC1` [Geranylpiperazine-DHA 6, geranylpiperazine-DHA], for which the CC50 in experiment [1] was 106 ± 3.99 µM. Also, in experiment [3], the “Intracellular ROS (DCF fluorescence fold change vs untreated control)” value was “not significantly higher when compared to the untreated control”. For the same compound, in experiment [2], the IC50 was 46.9 ± 0.89 µM and the “Therapeutic index (TI)” value is given as 2.2.
